Reference: patent US20060046968A1, “Prodrug substituted benzoxazoles as estrogenic agents” (priority 2004, published 2006)
Read-outs that look alike come from different tables or passages of the source.

What was measured:
[1] = molecular target: T1, human ERα (Homo sapiens, UniProt P03372); experiment: ER radioligand binding competition, ERα
T1 construct: These templates contained amino acids M250-V595 of human ERα; His (N); Flag (C); made in house; host or cells: E. coli BL21 (DE3), clarified lysate
T1 sequence (P03372 250-595): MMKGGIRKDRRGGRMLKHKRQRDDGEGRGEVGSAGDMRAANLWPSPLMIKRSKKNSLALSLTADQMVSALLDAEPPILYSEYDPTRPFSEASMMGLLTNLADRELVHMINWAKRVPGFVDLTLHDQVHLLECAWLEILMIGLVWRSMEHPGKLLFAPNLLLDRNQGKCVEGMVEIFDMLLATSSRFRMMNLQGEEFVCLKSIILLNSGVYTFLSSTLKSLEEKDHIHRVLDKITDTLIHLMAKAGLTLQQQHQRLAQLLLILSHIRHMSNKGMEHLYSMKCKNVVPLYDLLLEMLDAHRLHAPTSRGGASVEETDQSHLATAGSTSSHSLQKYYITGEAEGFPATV

[2] = molecular target: T2, human ERβ (Homo sapiens, UniProt Q92731); experiment: ER radioligand binding competition, ERβ
T2 construct: Flag (C); made in house; host or cells: E. coli BL21 (DE3), clarified lysate
T2 sequence (Q92731 214-530): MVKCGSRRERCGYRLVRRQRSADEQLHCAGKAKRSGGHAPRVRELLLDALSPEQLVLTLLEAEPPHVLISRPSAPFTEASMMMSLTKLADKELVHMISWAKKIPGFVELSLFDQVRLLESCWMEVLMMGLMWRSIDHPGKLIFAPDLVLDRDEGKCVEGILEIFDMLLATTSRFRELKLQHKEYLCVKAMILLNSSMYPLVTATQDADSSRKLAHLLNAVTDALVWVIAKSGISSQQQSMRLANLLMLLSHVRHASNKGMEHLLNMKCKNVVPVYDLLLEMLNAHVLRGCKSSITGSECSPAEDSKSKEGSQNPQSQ

[3] = system: Lewis rats; experiment: Lewis rat adjuvant-induced arthritis, treatment protocol: joint score (maximal score per day 12); type: in vivo; details: s.c. daily, begun Day 8 after adjuvant
[4] = system: ovariectomized Sprague-Dawley rats; experiment: Bone mineral density in the ovariectomized rat (pQCT, proximal tibia); type: in vivo; details: 17β-estradiol 2 μg/rat s.c.; 5 weeks
[5] = system: Sexually immature 129 SvE mice; experiment: Mouse uterotrophic test procedure (Procedure 2); type: in vivo; details: compound 50 mg/kg s.c., days 22-25
[6] = competition with [3H]-17β-estradiol, read-out: ER-α IC50

Question: Oc1ccc2nc(-c3ccc(O)c(F)c3)oc2c1 [Example 6, 2-(3-FLUORO-4-HYDROXYPHENYL)-1,3-BENZOXAZOL-6-OL] was tested. Which IC50 [1] did it give?
Answer: Its IC50 is 843 nM.

Question: With C=C(Br)c1cc(O)cc2nc(-c3ccc(O)c(F)c3F)oc12 [Example 33, 7-(1-BROMOVINYL)-2-(2,3-DIFLUORO-4-HYDROXYPHENYL)-1,3-BENZOXAZOL-5-OL] as the compound, how does the IC50 [2] read?
Answer: Its IC50 is 31 nM.

Question: What about the IC50 [1, 6] of the same compound?
Answer: The IC50 was 352 nM.

Question: What does the source list for Oc1ccc(-c2nc3cc(O)cc(C(Br)CBr)c3o2)cc1 (stereo not drawn) [Example 30, 7-(1,2-DIBROMOETHYL)-2-(4-HYDROXYPHENYL)-1,3-BENZOXAZOL-5-OL]?
Answer: IC50 [2]: 134 nM; IC50 [1, 6]: 3080 nM

Question: With Oc1cc(Br)c2oc(-c3cc(F)c(O)c(F)c3)nc2c1 [Example 61, 7-BROMO-2-(3,5-DIFLUORO-4-HYDROXYPHENYL)-1,3-BENZOXAZOL-5-OL] as the compound, how does the IC50 [2] read?
Answer: Its IC50 is 93 nM.

Question: What about the IC50 [1, 6] of the same compound?
Answer: Its IC50 is 1180 nM.

Question: Which IC50 [1] does the source give for Oc1ccc2nc(-c3cccc(O)c3O)oc2c1 [Example 9, 3-(6-HYDROXY-1,3-BENZOXAZOL-2-YL)BENZENE-1,2-DIOL] here?
Answer: Its IC50 is 1500 nM.

Question: How did the IC50 [2] turn out when CC(C)(O)c1cc(O)cc2nc(-c3ccc(O)cc3)oc12 [Example 50] was run?
Answer: The IC50 was 399 nM.

Question: What about the IC50 [1, 6] of the same compound?
Answer: Its IC50 is > 5000 nM.

Question: C=C(Br)c1cc(O)cc2nc(-c3ccc(O)cc3F)oc12 [Example 32, 7-(1-BROMOVINYL)-2-(2-FLUORO-4-HYDROXYPHENYL)-1,3-BENZOXAZOL-5-OL] was tested. Which IC50 [2] did it give?
Answer: Its IC50 is 16 nM.

Question: And the IC50 [1, 6]?
Answer: Its IC50 is 196 nM.

Question: What about the Joint inflammation score ([3]; table Day 1) of the same compound?
Answer: The Joint inflammation score was 11.33.

Question: What about the Joint inflammation score ([3]; table Day 2) of the same compound?
Answer: Its Joint inflammation score is 10.83.

Question: And the Joint inflammation score ([3]; table Day 3)?
Answer: The Joint inflammation score was 9.33.

Question: And the Joint inflammation score ([3]; table Day 4)?
Answer: The Joint inflammation score was 8.00.

Question: What about the Joint inflammation score ([3]; table Day 5) of the same compound?
Answer: The Joint inflammation score was 5.83.

Question: What about the Joint inflammation score ([3]; table Day 6) of the same compound?
Answer: Its Joint inflammation score is 3.33.

Question: What about the Joint inflammation score ([3]; table Day 7) of the same compound?
Answer: Its Joint inflammation score is 3.00.

Question: And the Joint inflammation score ([3]; table Day 8)?
Answer: Its Joint inflammation score is 2.50.

Question: What about the Joint inflammation score ([3]; table Day 9) of the same compound?
Answer: The Joint inflammation score was 2.50.

Question: And the Joint inflammation score ([3]; table Day 10)?
Answer: The Joint inflammation score was 2.50.

Question: What about the Joint inflammation score ([3]; table Day 11) of the same compound?
Answer: Its Joint inflammation score is 2.50.

Question: And the Joint inflammation score ([3]; table Day 12)?
Answer: The Joint inflammation score was 2.50.

Question: What about the Joint inflammation score ([3]; table Day 13) of the same compound?
Answer: Its Joint inflammation score is 2.50.

Question: And the Joint inflammation score ([3]; table Day 14)?
Answer: The Joint inflammation score was 2.50.

Question: What about the Joint inflammation score ([3]; table Day 15) of the same compound?
Answer: The Joint inflammation score was 2.00.

Question: And the Joint inflammation score ([3]; table Day 16)?
Answer: Its Joint inflammation score is 1.33.

Question: What about the Joint inflammation score ([3]; table Day 17) of the same compound?
Answer: The Joint inflammation score was 1.00.

Question: Which IC50 [2] does the source give for Oc1ccc(O)c(-c2nc3ccc(O)cc3o2)c1 [Example 8, 2-(6-HYDROXY-1,3-BENZOXAZOL-2-YL)BENZENE-1,4-DIOL] here?
Answer: Its IC50 is 181 nM.

Question: What about the IC50 [1, 6] of the same compound?
Answer: Its IC50 is 2350 nM.

Question: Which results are given for CCc1cc(O)ccc1-c1nc2cc(O)cc(CC)c2o1 [Example 45, 7-ETHYL-2-(2-ETHYL-4-HYDROXYPHENYL)-1,3-BENZOXAZOL-5-OL]?
Answer: IC50 [2]: 84 nM; IC50 [1, 6]: 655 nM

Question: C[C@]12CC[C@@H]3c4ccc(O)cc4CC[C@H]3[C@@H]1CC[C@@H]2O [17β-estradiol, reference compound] was tested. Which “Total Bone Mineral Density (mean ± SEM)” value [4] did it give?
Answer: Its value is 639.49 ± 14.47 mg/mL.

Question: And the “Trabecular Bone Mineral Density (mean ± SEM)” value [4]?
Answer: The value was 453.28 ± 24.93 mg/mL.

Question: Which results are given for Oc1ccc(O)c(-c2nc3cc(O)ccc3o2)c1 [Example 1, 2-(5-HYDROXY-1,3-BENZOXAZOL-2-YL) BENZENE-1,4-DIOL]?
Answer: IC50 [2]: 140 nM; IC50 [1, 6]: 720 nM

Question: How did the IC50 [2] turn out when COc1cc(O)c(Br)c2nc(-c3ccc(O)cc3)oc12 [Example 59, 4-BROMO-2-(4-HYDROXYPHENYL)-7-METHOXY-1,3-BENZOXAZOL-5-OL] was run?
Answer: Its IC50 is 52 nM.

Question: And the IC50 [1, 6]?
Answer: Its IC50 is 2670 nM.

Question: Which results are given for C=Cc1cc(O)cc2nc(-c3ccc(O)cc3)oc12 [Example 27, 2-(4-HYDROXYPHENYL)-7-VINYL-1,3-BENZOXAZOL-5-OL]?
Answer: IC50 [1]: 409 nM; Joint inflammation score ([3]; table Day 1): 11.33; Joint inflammation score ([3]; table Day 2): 11.15; Joint inflammation score ([3]; table Day 3): 11.33; Joint inflammation score ([3]; table Day 4): 9.83; Joint inflammation score ([3]; table Day 5): 8.83; Joint inflammation score ([3]; table Day 6): 7.83; Joint inflammation score ([3]; table Day 7): 6.16; Joint inflammation score ([3]; table Day 8): 5.00; Joint inflammation score ([3]; table Day 9): 4.33; Joint inflammation score ([3]; table Day 10): 2.66; Joint inflammation score ([3]; table Day 11): 1.83; Joint inflammation score ([3]; table Day 12): 1.83; Joint inflammation score ([3]; table Day 13): 2.66; Joint inflammation score ([3]; table Day 14): 2.66; Joint inflammation score ([3]; table Day 15): 2.00; Joint inflammation score ([3]; table Day 16): 2.00; Joint inflammation score ([3]; table Day 17): 1.50

Question: Which IC50 [2] does the source give for Oc1cc(Br)c2oc(-c3ccc(O)c(F)c3F)nc2c1 [Example 23, 7-BROMO-2-(2,3-DIFLUORO-4-HYDROXYPHENYL)-1,3-BENZOXAZOL-5-OL] here?
Answer: The IC50 was 3 nM.

Question: What about the IC50 [1, 6] of the same compound?
Answer: Its IC50 is 113 nM.

Question: For C=C(C)c1cc(O)cc2nc(-c3ccc(O)cc3)oc12 [Example 51, 2-(4-HYDROXYPHENYL)-7-ISOPROPENYL-1,3-BENZOXAZOL-5-OL], which IC50 [2] is on record?
Answer: The IC50 was 142 nM.

Question: And the IC50 [1, 6]?
Answer: The IC50 was 775 nM.

Question: How did the “mean uterine weight ± SEM” value [5] turn out when NC(=O)c1cc(O)cc2nc(-c3ccc(O)cc3)oc12 [Example 42, 5-HYDROXY-2-(4-HYDROXYPHENYL)-1,3-BENZOXAZOL-7-CARBOXAMIDE] was run?
Answer: Its value is 9.5 ± 0.6 mg.

Question: What does the source list for COc1c(Br)c(O)c(Br)c2nc(-c3ccc(O)cc3)oc12 [Example 60, 4,6-DIBROMO-2-(4-HYDROXYPHENYL)-7-METHOXY-1,3-BENZOXAZOL-5-OL]?
Answer: IC50 [2]: 64 nM; IC50 [1, 6]: 559 nM

Question: What does the source list for C=C(Br)c1cc(O)cc2nc(-c3ccc(O)cc3)oc12 [Example 31, 7-(1-BROMOVINYL)-2-(4-HYDROXYPHENYL)-1,3-BENZOXAZOL-5-OL]?
Answer: IC50 [2]: 31 nM; IC50 [1, 6]: 352 nM
